Where two headings read alike, the source gives them in different places.
Molecular target: T1, human T-bet (Homo sapiens, UniProt Q9UL17)
T1 construct: expressed in transfected cells; host or cells: engineered HEK cells (HEKT-bet)
T1 sequence (Q9UL17 1-535): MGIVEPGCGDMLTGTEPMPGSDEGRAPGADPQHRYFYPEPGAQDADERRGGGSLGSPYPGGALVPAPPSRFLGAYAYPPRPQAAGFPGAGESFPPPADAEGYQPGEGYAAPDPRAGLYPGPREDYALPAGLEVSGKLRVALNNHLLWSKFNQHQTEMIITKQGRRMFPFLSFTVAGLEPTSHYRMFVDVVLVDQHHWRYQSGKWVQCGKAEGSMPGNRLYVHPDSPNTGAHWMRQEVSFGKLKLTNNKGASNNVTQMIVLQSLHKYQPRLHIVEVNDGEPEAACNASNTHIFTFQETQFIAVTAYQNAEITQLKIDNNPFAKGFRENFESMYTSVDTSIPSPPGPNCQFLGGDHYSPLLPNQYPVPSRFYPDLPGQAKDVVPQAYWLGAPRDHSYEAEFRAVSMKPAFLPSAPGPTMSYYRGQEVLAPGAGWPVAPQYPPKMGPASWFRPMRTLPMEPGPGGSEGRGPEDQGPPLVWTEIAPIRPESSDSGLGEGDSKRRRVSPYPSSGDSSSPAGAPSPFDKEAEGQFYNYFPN
Test: HEKT-bet-luc assay (T-bet dependent luciferase reporter in engineered HEK cells)
Type: cell-based
Conditions: HEKT-bet cells, compound 24 hours, IC50 normalized to reference ER-213038, read-out: IC50
Method: HEKT-bet-luc assay: This assay measures a T-bet dependent reporter (luciferase) activity in engineered HEK cells that express a human T-bet and a T-box responsive element driving luciferase reporter. HEKT-bet cells were plated at 2×10^4/well in 96-well plate and compound was added into cell culture for 24 hours. Luciferase activity was measured by adding 50 μl of Steady-Glo reagent (Promega) and samples were read in Victor V reader (PerkinElmer). The IC50 values were calculated utilizing a maximum value corresponding to the amount of luciferase in the absence of a test compound and a minimum value corresponding to a test compound value obtained at maximum inhibition.
Determination of Normalized HEKT-bet IC50 values: Compounds were assayed in microtiter plates. Each plate included a reference compound which was ER-213038. The un-normalized IC50 value for a particular compound was divided by the IC50 value determined for the reference compound in the same microtiter plate to provide a relative potency value. The relative potency value was then multiplied by the established potency of the reference compound to provide the normalized HEKT-bet IC50 value. […] The IC50 values provided herein were obtained using this normalization method.

| Structure (SMILES) | IC50 (Table 4) [nM] | IC50 (Table 3) [nM] |
| --- | --- | --- |
| O=C1N(C/C=C/c2ccccc2)C(=O)C2(CCN(Cc3cccc4ccccc34)CC2)N1Cc1ccccn1 [Example 240] | 420 |  |
| CCOC(=O)CCCCN1C(=O)N(Cc2cccc(OC)c2)C(=O)C12CCN(Cc1ccccc1)CC2 [Example 104] |  | 1390 |
| COCCCN1C(=O)N(Cc2cc(OC)cc(OC)c2)C(=O)C12CCN(Cc1cc(OC)cc(OC)c1)CC2 [Example 207] | 317 |  |
| CCN1C(=O)N(CCCc2ccccc2)C(=O)C12CCN(Cc1cccc(C)c1)CC2 [Example 252] | 448 |  |
| CCN1C(=O)N(CCCOc2ccccc2)C(=O)C12CCN(Cc1cccc(OC)c1)CC2 [Example 277] | 540 |  |
| COCCN1C(=O)N(Cc2cccc(OC)c2)C(=O)C12CCN(C/C=C/c1ccc(OC)cc1)CC2 [Example 108] |  | 1470 |
| COc1cccc(CN2CCC3(CC2)NC(=O)N(C/C=C/c2ccccc2)C3=O)c1 [Example 174] | 198 |  |
| COCCN1C(=O)N(Cc2cccc(OC)c2)C(=O)C12CCN(Cc1cc(OC)ccc1OC)CC2 [Example 269] | 513 |  |
| COCCN1C(=O)N(C/C=C/c2ccccc2C)C(=O)C12CCN(Cc1ccccc1)CC2 [Example 226] | 373 |  |
| COCCN1C(=O)N(CCCOc2ccccc2)C(=O)C12CCN(Cc1cc(OC)cc(OC)c1)CC2 [Example 195] | 264 |  |
| COc1cccc(CN2C(=O)N(Cc3ccc(-n4cccn4)cc3)C3(CCN(Cc4cc(OC)cc(OC)c4)CC3)C2=O)c1 [Example 155] | 159 |  |
| COc1cccc(CN2C(=O)N(Cc3ccc4c(c3)nnn4C)C3(CCN(Cc4cccc5ccccc45)CC3)C2=O)c1 [Example 231] | 385 |  |
| COCCN1C(=O)N(Cc2cccc(F)c2)C(=O)C12CCN(Cc1cc(OC)cc(OC)c1)CC2 [Example 163] | 182 |  |
| COc1cc(CN2CCC3(CC2)C(=O)N(Cc2cc(OC)cc(OC)c2)C(=O)N3CSC)cc(OC)c1 [Example 99] |  | 1150 |
| COCCN1C(=O)N(Cc2cc(OC)ccc2OC)C(=O)C12CCN(Cc1cc(OC)cc(OC)c1)CC2 [Example 215] | 348 |  |
| COCN1C(=O)N(Cc2cc(OC)cc(OC)c2)C(=O)C12CCN(Cc1cccc(OC)c1)CC2 [Example 292] | 576 |  |
| CCN1C(=O)N(Cc2ccc3ccccc3c2)C(=O)C12CCN(Cc1cccc3ccccc13)CC2 [Example 286] | 560 |  |

| Structure (SMILES) | IC50 (Table 4) [nM] | IC50 (Table 3) [nM] |
| --- | --- | --- |
| COCCN1C(=O)N(Cc2cccc(OC)c2)C(=O)C12CCN(Cc1cc(F)c(O)c(OC)c1)CC2 [Example 111] |  | 1550 |
| COCCN1C(=O)N(CCCC2CCCCC2)C(=O)C12CCN(Cc1ccccc1)CC2 [Example 246] | 435 |  |
| CCN1C(=O)N(Cc2cccc(OC)c2)C(=O)C12CCN(Cc1cccc3ccccc13)CC2 [Example 168] | 190 |  |
| CCN1C(=O)N(CCCc2ccccc2)C(=O)C12CCN(Cc1cccc(OC)c1)CC2 [Example 282] | 549 |  |
| COc1cccc(CN2C(=O)N(Cc3ccccn3)C3(CCN(Cc4cccc5ccccc45)CC3)C2=O)c1 [Example 241] | 424 |  |
| O=C1N(C/C=C/c2ccccc2)C(=O)C2(CCN(Cc3cccc4ccccc34)CC2)N1CCCO [Example 88] |  | 798 |
| CCN1C(=O)N(Cc2ccc3ccccc3c2)C(=O)C12CCN(Cc1cccc(C)c1)CC2 [Example 272] | 525 |  |
| COc1cc(CN2CCC3(CC2)C(=O)N(C/C=C/c2ccccc2)C(=O)N3CCn2cccc2)cc(OC)c1 [Example 83] |  | 667 |
| CCN1C(=O)N(CCCOc2ccccc2)C(=O)C12CCN(Cc1cc(OC)cc(OC)c1)CC2 [Example 217] | 350 |  |
| COc1cccc(CN2C(=O)N(CC=C(C)C)C3(CCN(Cc4ccccc4)CC3)C2=O)c1 [Example 109] |  | 1520 |
| COc1cccc(CN2C(=O)N(CC=C(C)C)C3(CCN(Cc4cccc5ccccc45)CC3)C2=O)c1 [Example 265] | 501 |  |
| COCCN1C(=O)N(Cc2cccc(OC)c2)C(=O)C12CCN(CC(=O)C13CC4CC(CC(C4)C1)C3)CC2 [Example 113] |  | 1650 |
| COc1cc(CN2CCC3(CC2)C(=O)N(C/C=C/c2ccccc2)C(=O)N3Cc2cccc3cccnc23)cc(OC)c1 [Example 201] | 288 |  |
| CCCOc1ccc(CN2CCC3(CC2)C(=O)N(Cc2cccc(OC)c2)C(=O)N3CCOC)cc1OC [Example 273] | 528 |  |
| CCN1C(=O)N(Cc2ccc3ccccc3c2)C(=O)C12CCN(Cc1ccc3ccccc3c1)CC2 [Example 95] |  | 970 |
| COCCN1C(=O)N(CCCOc2ccccc2)C(=O)C12CCN(Cc1cccc(OC)c1)CC2 [Example 220] | 362 |  |
| COc1cccc(CN2C(=O)N(Cc3cccnc3)C3(CCN(Cc4cccc5ccccc45)CC3)C2=O)c1 [Example 173] | 196 |  |

Other lines, results leading:

| IC50 (Table 4) [nM] | IC50 (Table 3) [nM] | Structure (SMILES) |
| --- | --- | --- |
|  | 681 | COCCN1C(=O)N(Cc2cccc(OC)c2)C(=O)C12CCN(Cc1cccc(-c3cccc(O)c3)c1)CC2 [Example 84] |
| 589 |  | CNc1cccc(CN2CCC3(CC2)C(=O)N(Cc2cccc(OC)c2)C(=O)N3CCOC)c1 [Example 298] |
| 371 |  | COCCN1C(=O)N(Cc2cccc(OC)c2)C(=O)C12CCN(Cc1cccc(-c3ccc(S(C)(=O)=O)cc3)c1)CC2 [Example 224] |
| 390 |  | COCCN1C(=O)N(Cc2cccc(OC)c2)C(=O)C12CCN(Cc1cccc(Cl)c1)CC2 [Example 235] |
|  | 868 | COCCN1C(=O)N(Cc2cccc(OC)c2)C(=O)C12CCN(Cc1cccc(-c3ccc4[nH]ccc4c3)c1)CC2 [Example 92] |
| 580 |  | COCCN1C(=O)N(Cc2cccc(OC)c2)C(=O)C12CCN(Cc1cccc3c4ccccc4n(C)c13)CC2 [Example 295] |
| 130 |  | COCCN1C(=O)N(Cc2cccc(OC)c2)C(=O)C12CCN(Cc1c(C)cccc1C)CC2 [Example 141] |
| 236 |  | COCCN1C(=O)N(Cc2cccc(OC)c2)C(=O)C12CCN(Cc1c(C)cc(C)cc1C)CC2 [Example 186] |
|  | 1810 | COCCN1C(=O)N(Cc2cccc(OC)c2)C(=O)C12CCN(Cc1ccc3ccc4cccc5ccc1c3c45)CC2 [Example 115] |
| 538 |  | COCCN1C(=O)N(Cc2cccc(OC)c2)C(=O)C12CCN(Cc1cccc(N(C)c3ccccc3)c1)CC2 [Example 276] |
| 442 |  | COCCN1C(=O)N(Cc2ccc3ccccc3c2)C(=O)C12CCN(Cc1ccc3ccccc3c1)CC2 [Example 250] |
| 336 |  | COCCN1C(=O)N(Cc2cccc(OC)c2)C(=O)C12CCN(Cc1ccc(C)c(C)c1)CC2 [Example 212] |
| 120 |  | COCCN1C(=O)N(Cc2cccc(OC)c2)C(=O)C12CCN(Cc1cccc(C)c1C)CC2 [Example 134] |
| 495 |  | CCOc1ccccc1CN1CCC2(CC1)C(=O)N(Cc1cccc(OC)c1)C(=O)N2CCOC [Example 262] |
| 291 |  | COCCN1C(=O)N(Cc2cccc(OC)c2)C(=O)C12CCN(Cc1cccc(OC(F)(F)F)c1)CC2 [Example 203] |
|  | 1030 | COCCN1C(=O)N(Cc2ccc3cc4ccccc4cc3c2)C(=O)C12CCN(Cc1ccccc1)CC2 [Example 96] |
| 586 |  | COc1cccc(CN2C(=O)N(Cc3cccc(OC)c3)C3(CCN(Cc4ccccc4)CC3)C2=O)c1 [Example 297] |
| 161 |  | COCCN1C(=O)N(Cc2cccc(OC)c2)C(=O)C12CCN(Cc1cc3ccccc3c3ccccc13)CC2 [Example 157] |
| 490 |  | C#CCOc1ccc(CN2CCC3(CC2)C(=O)N(Cc2cccc(OC)c2)C(=O)N3CCOC)cc1OC [Example 261] |
| 424 |  | COCCN1C(=O)N(Cc2cccc(OC)c2)C(=O)C12CCN(Cc1cccc3cccnc13)CC2 [Example 242] |
